One assay relates to MMP9. Kind of assay: Zymogram of culture media from Matrigel invasion assay, MMP9. The note with it: media of MDA MB 231 Matrigel invasion assay. It is filed as cell-based, Human. As for the experimental part: (§1) The media (25-30 μl) from Matrigel Invasion studies was applied to Novex zymogram gels (Invitrogen). The gel plates were developed and stained as recommended by the manufacturer. The matrix-metalloproteinases (MMPs) bands were identified on the basis of their known molecular weights.
(§2) The media from various treatments in the Matrigel Invasion assay (Example 4) were applied to Novex Zymogram Gel (Invitrogen). The plates were developed and stained as recommended by the manufacturer. The matrix metalloproteinases (MMPs) bands were identified on the basis of their known molecular weights (FIG. 6).

Another assay concerns MMP2. Kind of assay: Zymogram of culture media from Matrigel invasion assay, MMP2. It is filed as cell-based, Human. The protocol: as §1, §2
Assay [1] concerns Human Breast Cancer Cells MDA-MB 231. Put plainly: Cell proliferation study (MTT stain), breast cancer cells. The note with it: MDA-MB 231, 4 days.
Description: To study the effects of catechins and dietary composition on cell proliferation of human cancer cells, various human cancer cell lines were cultured in 24 well plates using the culture conditions specified by ATCC (supplier of cell lines). The cells were generally incubated for 3 to 4 days (before coalescence was reached). The total number of cells in a culture well was determined by staining the cells with vital stain (MTT) followed by the determination of OD of the stain solution. MTT only stain the dead cells and the amount of stain uptake correlates with the number of dead cells in the culture. Percent inhibition was calculated by comparing the OD of the treatment groups with the OD of the control groups. In these studies, 5×10^4 breast cancer cells (MDAMB 231) were seeded in each of the wells of 24-well plate. […] Plates were incubated in ambient air (without supplemental CO2) for a period of 4 days. At the end of the period, the culture media were withdrawn and the cells in each well were stained with MTT. Excess MTT stain was washed off. The MTT stained cancer cells were dissolved in 1 ml DMSO solution. The optical density (OD) of the solution was determined for each well. The OD for the well was directly proportional to the number of dead cells. The OD of the MTT stained cancer cells that were previously cultured in the absence of EGCGT was used as a reference and was considered as 100. Percent inhibition was calculated by using the formula: % Inhibition=(OD of Reference−OD of the Test Treatment)/OD of Reference×100%.
Assay [2] has as its system Human breast cancer cells (MDA MB 231). Put plainly: Matrigel invasion assay, breast cancer cells. Format: cell-based. The note with it: EGCG 50 μg/ml alone, MDA MB 231, 18 hours. As for the experimental part:
The Matrigel Invasion studies were conducted using Matrigel (Becton Dickinson) inserts in compatible 24 well plates. This assay is a reliable assay for evaluating cancer metastasis.
Human fibroblast cells were seeded and grown in the 24-well plates using culture media containing ˜10% serum. When the fibroblasts reached coalescence, the culture media with serum was withdrawn and replaced with fresh media without serum. A combination of catechin compounds plus dietary composition were added to the media without serum and human cancer cells were seeded on the upper surface of the Matrigel inserts.
After 18 hours, the media were withdrawn. Some media were saved for zymogram studies. The cells on the upper surface of the inserts were gently scrubbed away with cotton swab. The cells that had penetrated the Matrigel membrane and had migrated into the lower surface of the Matrigel were stained with Quick Stain and were counted under a microscope.
The general procedure for Matrigel Invasion Assay has been described above. In this assay, human breast cancer cells (5×10^4) were seeded on each insert. Various supplements were added to Leibovitz's media. The plates were incubated in an incubator in ambient air without supplemental CO2.

As for `O=C(O[C@@H]1Cc2c(O)cc(O)cc2O[C@@H]1c1cc(O)c(O)c(O)c1)c1cc(O)c(O)c(O)c1` [EGCG, (−)-epigallocatechin-3-gallate], in the assay with MMP9 (EGCG 20 ug/ml), the “production of MMP9 (zymogram)” value was “completely inhibited”. Also, the “activity of MMP9 (zymogram)” value in the assay on MMP9 (EGCG 50 μg/ml) and in the assay on MMP9 (EGCG 100 ug/ml) was “completely inhibited” throughout. In the assay with MMP2 (EGCG 20 ug/ml, media of MDA MB 231 Matrigel invasion assay), the “production of MMP2 (zymogram)” value is on record as “reduced”. In addition, the “activity of MMP2 (zymogram)” value with MMP2 (EGCG 50 μg/ml, media of MDA MB 231 Matrigel invasion assay) is recorded as “completely inhibited”; in the assay on MMP2 (EGCG 100 ug/ml, media of MDA MB 231 Matrigel invasion assay), “completely inhibited”. Further, in the assay with MMP2 (FIG. 6 legend, concentration not given), the “activity of MMP2 secreted by breast cancer cells (zymogram)” value was “decreases”. The “inhibition of cell proliferation” value in assay [1] (EGCG 10 ug/ml) is listed as “did not inhibit”; in assay [1] (EGCG 20 μg/ml alone), 3%; in assay [1] (EGCG 50 μg/ml) it was 34%; in assay [1] (EGCG 100 μg/ml), 66%; in assay [1] (EGCG 200 μg/ml), 70%. Moreover, the “inhibition of Matrigel invasion” value in assay [2] was approximately 100%.

Values taken from patent US6939860B2, “Composition and method for treatment of neoplastic diseases associated with elevated matrix metalloproteinase activities using catechin compounds” (priority 2002, dated 2005).
